# Measured values reported in patent US9499519B2, “Fused pyrimidine compounds and use thereof” (Medivation Technologies, Inc., priority 2012, dated 2016).
# Where two headings read alike, the source gives them in different places.
# Key:
# [1] = system: Akt phosphorylation induced by IGF-1R; assay: Western blot analysis of Akt phosphorylation induced by IGF-1 in HT-29 cells; format: cell-based, Human; settings: for Levels of phosphorylated AKT in treated cells (pAKT/actin): HT-29 cells, IGF-1; for p-AKT relative to levels with 0.1 nM compound: Table B2 lower part; for Normalized phosphorylated AKT (relative to actin) levels relative to 0.1 nM compound treatment: Table B2 upper part; for pAKT relative to 0.1 nM compound: derivatives of Cpd. No. 8b
# In short: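 Phospho-Akt assessed by western blot in serum-depleted (24 h) human colon carcinoma HT-29 cells. Compounds applied for 2 h at 0.1–100 (0.1, 1, 10, 100); vehicle DMSO and 10 ng/mL IGF-1 served as controls. Protein in cleared lysates measured by BCA assay.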
# [2] = target: T1, IGF-1R (Homo sapiens, UniProt P08069); assay: In vitro IGF-1R enzymatic assay (ADP-Glo kinase assay); format: biochemical; settings: activated IGF-1R, 30 nM; for % Inh @ 30 nM (N1) / % Inh @ 30 nM (N2): 0.03 µM
# T1 construct: purchased Millipore 14-802
# Procedure: (§1) IC50 values of the compounds of the invention against IGF-1R and IR were measured in vitro using an ADP-Glo kinase assay Kit (Promega). […] Kinase reactions in both assays were conducted at 30° C. for 20 min with increasing concentrations of compounds of the invention.
# Additional compounds of the invention were screened against activated IGF-1R.
# [3] = target: T2, IR (Homo sapiens, UniProt P06213); assay: In vitro IR enzymatic assay (ADP-Glo kinase assay); format: biochemical; settings: activated IR, 30 nM; for % Inh @ 30 nM (N1) / % Inh @ 30 nM (N2): 0.03 µM
# T2 construct: purchased Millipore 14-803
# Procedure: as §1
# Additional compounds of the invention were screened against activated IR.
# [4] = N1, read-out: % Inh @ 30 nM (N1)
# [5] = N2, read-out: % Inh @ 30 nM (N2)
# [6] = average, read-out: % Inh @ 30 nM Avg
# T1 sequence (P08069 31-1367): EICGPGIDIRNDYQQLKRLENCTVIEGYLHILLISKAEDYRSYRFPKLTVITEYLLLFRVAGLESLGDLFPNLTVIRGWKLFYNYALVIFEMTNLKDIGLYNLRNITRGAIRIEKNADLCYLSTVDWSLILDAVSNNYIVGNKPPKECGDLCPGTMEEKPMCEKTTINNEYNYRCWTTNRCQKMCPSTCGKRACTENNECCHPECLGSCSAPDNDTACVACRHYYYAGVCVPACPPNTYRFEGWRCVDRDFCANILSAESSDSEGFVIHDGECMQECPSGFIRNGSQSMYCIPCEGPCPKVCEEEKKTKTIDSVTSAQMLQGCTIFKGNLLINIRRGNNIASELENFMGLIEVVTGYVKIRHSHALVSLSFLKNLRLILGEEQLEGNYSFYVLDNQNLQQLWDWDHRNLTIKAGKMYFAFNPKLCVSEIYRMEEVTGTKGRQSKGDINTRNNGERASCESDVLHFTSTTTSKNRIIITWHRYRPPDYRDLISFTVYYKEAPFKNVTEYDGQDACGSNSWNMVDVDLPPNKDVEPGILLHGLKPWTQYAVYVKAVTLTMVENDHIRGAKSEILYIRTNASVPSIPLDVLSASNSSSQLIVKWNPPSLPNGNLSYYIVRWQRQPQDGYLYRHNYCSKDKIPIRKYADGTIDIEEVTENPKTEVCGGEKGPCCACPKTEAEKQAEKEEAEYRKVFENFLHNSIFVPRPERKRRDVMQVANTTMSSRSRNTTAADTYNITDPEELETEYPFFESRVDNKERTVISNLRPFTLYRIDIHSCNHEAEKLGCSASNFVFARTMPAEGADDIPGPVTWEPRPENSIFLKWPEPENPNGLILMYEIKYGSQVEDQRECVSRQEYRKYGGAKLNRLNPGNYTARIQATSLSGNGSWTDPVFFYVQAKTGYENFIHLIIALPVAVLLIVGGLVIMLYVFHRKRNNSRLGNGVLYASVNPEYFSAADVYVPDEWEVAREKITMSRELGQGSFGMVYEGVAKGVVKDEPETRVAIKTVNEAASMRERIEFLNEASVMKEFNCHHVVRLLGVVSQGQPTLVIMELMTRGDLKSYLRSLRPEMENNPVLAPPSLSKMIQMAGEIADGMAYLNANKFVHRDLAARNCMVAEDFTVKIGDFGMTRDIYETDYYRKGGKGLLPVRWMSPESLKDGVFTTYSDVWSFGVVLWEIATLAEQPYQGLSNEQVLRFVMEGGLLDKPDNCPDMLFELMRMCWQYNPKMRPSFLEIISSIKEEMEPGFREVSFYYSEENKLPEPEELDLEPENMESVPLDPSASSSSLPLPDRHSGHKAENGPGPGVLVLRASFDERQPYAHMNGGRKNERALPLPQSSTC
# T2 sequence (P06213 28-1382): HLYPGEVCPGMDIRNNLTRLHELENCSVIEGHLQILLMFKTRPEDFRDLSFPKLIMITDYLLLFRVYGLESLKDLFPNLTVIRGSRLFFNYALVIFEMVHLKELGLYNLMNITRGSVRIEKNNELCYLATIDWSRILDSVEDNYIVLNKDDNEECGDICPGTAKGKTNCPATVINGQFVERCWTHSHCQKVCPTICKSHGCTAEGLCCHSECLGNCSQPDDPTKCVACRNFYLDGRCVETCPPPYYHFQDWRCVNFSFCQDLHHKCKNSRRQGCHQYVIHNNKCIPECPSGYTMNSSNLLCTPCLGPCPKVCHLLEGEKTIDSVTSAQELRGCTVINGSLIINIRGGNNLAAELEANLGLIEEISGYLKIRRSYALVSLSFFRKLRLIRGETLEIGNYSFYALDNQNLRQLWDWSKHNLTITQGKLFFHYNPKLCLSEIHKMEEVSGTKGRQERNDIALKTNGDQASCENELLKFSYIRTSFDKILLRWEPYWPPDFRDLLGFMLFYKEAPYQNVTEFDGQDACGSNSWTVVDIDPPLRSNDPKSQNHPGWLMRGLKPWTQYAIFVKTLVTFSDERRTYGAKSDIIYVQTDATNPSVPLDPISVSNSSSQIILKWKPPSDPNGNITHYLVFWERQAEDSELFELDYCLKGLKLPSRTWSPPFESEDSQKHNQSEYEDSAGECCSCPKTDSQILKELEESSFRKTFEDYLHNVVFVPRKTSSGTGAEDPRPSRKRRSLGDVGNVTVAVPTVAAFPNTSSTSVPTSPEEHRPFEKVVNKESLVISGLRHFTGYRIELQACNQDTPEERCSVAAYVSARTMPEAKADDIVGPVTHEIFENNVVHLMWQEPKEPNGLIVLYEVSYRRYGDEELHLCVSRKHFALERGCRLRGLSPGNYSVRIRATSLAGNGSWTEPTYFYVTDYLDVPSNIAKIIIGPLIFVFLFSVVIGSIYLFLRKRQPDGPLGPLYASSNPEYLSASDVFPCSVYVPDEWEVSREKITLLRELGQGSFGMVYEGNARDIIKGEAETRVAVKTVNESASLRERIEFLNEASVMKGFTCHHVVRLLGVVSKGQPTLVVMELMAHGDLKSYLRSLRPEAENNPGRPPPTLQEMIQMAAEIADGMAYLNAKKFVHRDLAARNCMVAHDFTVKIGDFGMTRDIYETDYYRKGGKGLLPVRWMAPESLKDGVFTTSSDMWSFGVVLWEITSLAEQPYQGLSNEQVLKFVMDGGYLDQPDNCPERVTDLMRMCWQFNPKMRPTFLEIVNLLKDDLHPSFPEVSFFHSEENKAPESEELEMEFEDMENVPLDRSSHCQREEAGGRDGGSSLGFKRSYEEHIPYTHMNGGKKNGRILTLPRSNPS
SMILES,Levels of phosphorylated AKT in treated cells (pAKT/actin) ([1]; 0.1 nM compound),p-AKT relative to levels with 0.1 nM compound ([1]; 0.1 nM),Normalized phosphorylated AKT (relative to actin) levels relative to 0.1 nM compound treatment ([1]; 0.1 nM),Levels of phosphorylated AKT in treated cells (pAKT/actin) ([1]; 1 nM compound),p-AKT relative to levels with 0.1 nM compound ([1]; 1 nM),Normalized phosphorylated AKT (relative to actin) levels relative to 0.1 nM compound treatment ([1]; 1 nM),Levels of phosphorylated AKT in treated cells (pAKT/actin) ([1]; 10 nM compound),p-AKT relative to levels with 0.1 nM compound ([1]; 10 nM),Normalized phosphorylated AKT (relative to actin) levels relative to 0.1 nM compound treatment ([1]; 10 nM),Levels of phosphorylated AKT in treated cells (pAKT/actin) ([1]; 100 nM compound),p-AKT relative to levels with 0.1 nM compound ([1]; 100 nM),Normalized phosphorylated AKT (relative to actin) levels relative to 0.1 nM compound treatment ([1]; 100 nM),% Inh @ 30 nM (N1) ([2]; N1) [%],% Inh @ 30 nM (N2) ([2]; N2) [%],% Inh @ 30 nM Avg ([2]; average) [%],% Inh @ 30 nM (N1) ([3]; N1) [%],% Inh @ 30 nM (N2) ([3]; N2) [%],% Inh @ 30 nM Avg ([3]; average) [%],"inhibition at 0.03 µM [2, 4] [%]","inhibition at 0.03 µM [2, 5] [%]",further results
"O=C(Nc1ccc(F)nc1)C1C(O)CCN1c1nc2c(c(Nc3cc(C4CC4)[nH]n3)n1)CCC2 (single isomer, unassigned) [Compound 11b, 1-(4-(5-cyclopropyl-1H-pyrazol-3-ylamino)-6,7-dihydro-5H-cyclopenta[d]pyrimidin-2-yl)-N-(6-fluoropyridin-3-yl)-3-hydroxypyrrolidine-2-carboxamide]",1.55,1.0,1.0,1.76,1.1,1.1,1.43,0.9,0.9,0.33,0.2,0.2,22,11,17,−2,9,3,,,
"CC(C)c1cc(Nc2nc(N3CCCC3C(=O)Nc3ccc(F)nc3)nc3c2CCCC3)n[nH]1 (single isomer, unassigned) [Compound 13a, N-(6-fluoropyridin-3-yl)-1-(4-(5-isopropyl-1H-pyrazol-3-ylamino)-5,6,7,8-tetrahydroquinazolin-2-yl)pyrrolidine-2-carboxamide]",0.51,1.0,1.0,0.54,1.1,1.1,0.45,0.9,0.9,0.80,1.6,1.6,,,,,,,10,34,"inhibition at 0.03 µM [2, 6]: 22%; inhibition at 0.03 µM [3, 4]: 4%; inhibition at 0.03 µM [3, 5]: -1%; inhibition at 0.03 µM [3, 6]: 2%"
"CC(C)c1cc(Nc2nc(N3CCCC3C(=O)Nc3ccc(F)nc3)nc3c2CCCC3)n[nH]1 (single isomer, unassigned) [Compound 13b, N-(6-fluoropyridin-3-yl)-1-(4-(5-isopropyl-1H-pyrazol-3-ylamino)-5,6,7,8-tetrahydroquinazolin-2-yl)pyrrolidine-2-carboxamide]",0.22,1.0,1.0,0.09,0.4,0.4,0.00,0.0,0.0,0.00,0.0,0.0,,,,,,,82,80,"pAKT relative to 0.1 nM compound ([1]; 0.1 nM): 1.00; pAKT relative to 0.1 nM compound ([1]; 1 nM): 0.49; pAKT relative to 0.1 nM compound ([1]; 10 nM): 0.04; pAKT relative to 0.1 nM compound ([1]; 100 nM): 0.02; inhibition at 0.03 µM [2, 6]: 81%; inhibition at 0.03 µM [3, 4]: 84%; inhibition at 0.03 µM [3, 5]: 80%; inhibition at 0.03 µM [3, 6]: 82%"
"O=C(Nc1ccc(F)nc1)C1CCCN1c1nc2c(c(Nc3cc(C4CCCC4)[nH]n3)n1)CCCC2 (single isomer, unassigned) [Compound 15b, 1-(4-(5-cyclopentyl-1H-pyrazol-3-ylamino)-5,6,7,8-tetrahydroquinazolin-2-yl)-N-(6-fluoropyridin-3-yl)pyrrolidine-2-carboxamide]",0.52,1.0,1.0,0.58,1.1,1.1,0.43,0.8,0.8,0.13,0.3,0.3,32,28,30,28,31,30,,,
"CC(C)c1cc(Nc2nc(N3CCCCC3C(=O)Nc3ccc(F)nc3)nc3c2CCC3)n[nH]1 (single isomer, unassigned) [Compound 16a, N-(6-fluoropyridin-3-yl)-1-(4-(5-isopropyl-1H-pyrazol-3-ylamino)-6,7-dihydro-5H-cyclopenta[d]pyrimidin-2-yl)piperidine-2-carboxamide]",0.82,1.0,1.0,0.62,0.8,0.8,0.61,0.7,0.7,0.30,0.4,0.4,,15,,1,−7,−3,,,
"CC(C)c1cc(Nc2nc(N3CCCCC3C(=O)Nc3ccc(F)nc3)nc3c2CCC3)n[nH]1 (single isomer, unassigned) [Compound 16b, N-(6-fluoropyridin-3-yl)-1-(4-(5-isopropyl-1H-pyrazol-3-ylamino)-6,7-dihydro-5H-cyclopenta[d]pyrimidin-2-yl)piperidine-2-carboxamide]",0.53,1.0,1.0,0.51,1.0,1.0,0.15,0.3,0.3,0.01,0.0,0.0,40,40,40,26,23,25,,,
